# Tested on: cancer-related neuropathic pain
# Assay: Open label dose escalation study of flupirtine, case studies JE and RM
# Settings: flupirtine 100 mg qid; for neuropathic discriminant function score: >0 = neuropathic, day 1 baseline 0.262; for electric pain score / freezing pain score / numbness score / score for increased pain due to touch / score for increased pain due to weather changes / squeezing pain score / LEAST PAIN LAST 24 HRS: day 1 baseline 0; for PERCENTAGE PAIN RELIEF LAST 24 HOURS / WORST PAIN SCORE LAST 24 HOURS: day 1 baseline 10; for score for overly sensitive to touch / tingling pain score: day 1 baseline 20; for burning pain score / overwhelming pain score: day 1 baseline 90; for for shooting pain score / unpleasant pain score: day 1 baseline 100; for SCORE RELATIONSHIPS / SCORE MOOD / SCORE ENJOYMENT / SCORE SLEEP / SCORE WALKING / SCORE GENERAL ACTIVITY / SCORE TOTAL ACTIVITY: pain interference 1-10; for SCORE RELATIONSHIPS / SCORE NAUSEA / WHO PERFORMANCE STATUS: day 1 baseline 3; for SCORE MOOD / SCORE POOR APPETITE / SCORE UN[…] GAIT / PAIN SCORE RIGHT NOW: day 1 baseline 4; for SCORE ENJOYMENT / SCORE SLEEP: day 1 baseline 6; for SCORE WALKING: day 1 baseline 7; for SCORE GENERAL ACTIVITY / SCORE TOTAL ACTIVITY / AVERAGE PAIN LAST 24 HOURS: day 1 baseline 8; for SCORE CONSTIPATION / SCORE INDIGESTION / SCORE POOR CONCENTRATION / SCORE DROWSINESS / SCORE NAUSEA / SCORE POOR APPETITE / SCORE UN[…] GAIT: scale 1-4; for SCORE CONSTIPATION / SCORE INDIGESTION / SCORE POOR CONCENTRATION: day 1 baseline 1; for SCORE DROWSINESS: day 1 baseline 2; for LEAST PAIN LAST 24 HRS / PAIN SCORE RIGHT NOW / AVERAGE PAIN LAST 24 HOURS / WORST PAIN SCORE LAST 24 HOURS: scale to 10; for WHO PERFORMANCE STATUS: 0=fully active, 4=completely disabled
smiles,measurement,setting,value
CCOC(=O)Nc1ccc(NCc2ccc(F)cc2)nc1N [flupirtine],neuropathic discriminant function score,RM day 2,−0.228
same,electric pain score,RM day 2,0
same,freezing pain score,RM day 2,0
same,numbness score,RM day 2,0
same,score for increased pain due to touch,RM day 2,0
same,score for increased pain due to weather changes,RM day 2,0
same,squeezing pain score,RM day 2,0
same,PERCENTAGE PAIN RELIEF LAST 24 HOURS,RM day 2,15%
same,score for overly sensitive to touch,RM day 2,0
same,tingling pain score,RM day 2,0
same,burning pain score,RM day 2,70
same,overwhelming pain score,RM day 2,70
same,for shooting pain score,RM day 2,80
same,unpleasant pain score,RM day 2,95
same,SCORE RELATIONSHIPS,RM day 2,3
same,SCORE MOOD,RM day 2,4
same,SCORE ENJOYMENT,RM day 2,4
same,SCORE SLEEP,RM day 2,6
same,SCORE WALKING,RM day 2,6
same,SCORE GENERAL ACTIVITY,RM day 2,6
same,SCORE TOTAL ACTIVITY,RM day 2,6
same,SCORE CONSTIPATION,RM day 2,1
same,SCORE INDIGESTION,RM day 2,1
same,SCORE POOR CONCENTRATION,RM day 2,3
same,SCORE DROWSINESS,RM day 2,3
same,SCORE NAUSEA,RM day 2,1
same,SCORE POOR APPETITE,RM day 2,3
same,SCORE UN[…] GAIT,RM day 2,4
same,LEAST PAIN LAST 24 HRS,RM day 2,0
same,PAIN SCORE RIGHT NOW,RM day 2,6
same,AVERAGE PAIN LAST 24 HOURS,RM day 2,5
same,WORST PAIN SCORE LAST 24 HOURS,RM day 2,8
same,WHO PERFORMANCE STATUS,RM day 3,3
same,neuropathic discriminant function score,RM day 3,−1.008
same,electric pain score,RM day 3,0
same,freezing pain score,RM day 3,0
same,numbness score,RM day 3,0
same,score for increased pain due to touch,RM day 3,0
same,score for increased pain due to weather changes,RM day 3,0
same,squeezing pain score,RM day 3,0
same,PERCENTAGE PAIN RELIEF LAST 24 HOURS,RM day 3,15%
same,score for overly sensitive to touch,RM day 3,0
same,tingling pain score,RM day 3,0
same,burning pain score,RM day 3,0
same,overwhelming pain score,RM day 3,50
same,for shooting pain score,RM day 3,20
same,unpleasant pain score,RM day 3,75
same,SCORE RELATIONSHIPS,RM day 3,3
same,SCORE MOOD,RM day 3,4
same,SCORE ENJOYMENT,RM day 3,4
same,SCORE SLEEP,RM day 3,1
same,SCORE WALKING,RM day 3,6
same,SCORE GENERAL ACTIVITY,RM day 3,5
same,SCORE TOTAL ACTIVITY,RM day 3,5
same,SCORE CONSTIPATION,RM day 3,1
same,SCORE INDIGESTION,RM day 3,1
same,SCORE POOR CONCENTRATION,RM day 3,1
same,SCORE DROWSINESS,RM day 3,2
same,SCORE NAUSEA,RM day 3,1
same,SCORE POOR APPETITE,RM day 3,1
same,SCORE UN[…] GAIT,RM day 3,4
same,LEAST PAIN LAST 24 HRS,RM day 3,0
same,PAIN SCORE RIGHT NOW,RM day 3,8
same,AVERAGE PAIN LAST 24 HOURS,RM day 3,8
same,WORST PAIN SCORE LAST 24 HOURS,RM day 3,8
same,WHO PERFORMANCE STATUS,RM day 4,3
same,neuropathic discriminant function score,RM day 4,−1.138
same,electric pain score,RM day 4,0
same,freezing pain score,RM day 4,0
same,numbness score,RM day 4,0
same,score for increased pain due to touch,RM day 4,0
same,score for increased pain due to weather changes,RM day 4,0
same,squeezing pain score,RM day 4,0
same,PERCENTAGE PAIN RELIEF LAST 24 HOURS,RM day 4,75%
same,score for overly sensitive to touch,RM day 4,0
same,tingling pain score,RM day 4,0
same,burning pain score,RM day 4,0
same,overwhelming pain score,RM day 4,30
same,for shooting pain score,RM day 4,0
same,unpleasant pain score,RM day 4,60
same,SCORE RELATIONSHIPS,RM day 4,3
same,SCORE MOOD,RM day 4,2
same,SCORE ENJOYMENT,RM day 4,3
same,SCORE SLEEP,RM day 4,2
same,SCORE WALKING,RM day 4,5
same,SCORE GENERAL ACTIVITY,RM day 4,5
same,SCORE TOTAL ACTIVITY,RM day 4,5
same,SCORE CONSTIPATION,RM day 4,3
same,SCORE INDIGESTION,RM day 4,1
same,SCORE POOR CONCENTRATION,RM day 4,1
same,SCORE DROWSINESS,RM day 4,1
same,SCORE NAUSEA,RM day 4,2
same,SCORE POOR APPETITE,RM day 4,1
same,SCORE UN[…] GAIT,RM day 4,4
same,LEAST PAIN LAST 24 HRS,RM day 4,0
same,PAIN SCORE RIGHT NOW,RM day 4,2.5
same,AVERAGE PAIN LAST 24 HOURS,RM day 4,8
same,WORST PAIN SCORE LAST 24 HOURS,RM day 4,8
same,WHO PERFORMANCE STATUS,RM day 5,3
same,neuropathic discriminant function score,RM day 5,−1.003
same,electric pain score,RM day 5,0
same,freezing pain score,RM day 5,0
same,numbness score,RM day 5,0
same,score for increased pain due to touch,RM day 5,0
same,score for increased pain due to weather changes,RM day 5,0
same,squeezing pain score,RM day 5,0
same,PERCENTAGE PAIN RELIEF LAST 24 HOURS,RM day 5,65%
same,score for overly sensitive to touch,RM day 5,0
same,tingling pain score,RM day 5,0
same,burning pain score,RM day 5,0
same,overwhelming pain score,RM day 5,25
same,for shooting pain score,RM day 5,0
same,unpleasant pain score,RM day 5,80
